What is called EC50 is the concentration at which the effect is half-maximal.

Molecules are shown by their SMILES. Read-outs that look alike come from different tables or passages of the source.

This is an account of results in US20260103471A1, “CYCLIC UREA THIAZOLYL COMPOUNDS FOR TREATMENT OF HSV” (Assembly Biosciences, Inc., priority 2022, published 2026).

Experiment [1] has as its system HSV-2 G strain. In words: HSV-2 Antiviral Assay (Vero cells, cell viability). The format is cell-based. The note with it: for EC50: Human alphaherpesvirus 2, Vero, 120 h, Vero cells, 5 days. Put shortly: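 Antiviral readout is survival of infected Vero cells: after 5 days at 37 °C with 160 TCID50 HSV-2 G strain plus serially diluted compound (8 points, 3-fold, 0.5% DMSO), WST-8 was added for 3 h and absorbance measured at 460/620 nm. Cells seeded at 1.0×10^4 per well.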

For experiment [2], the system named is HSV-1. In words: HSV-1 Antiviral Assay (Vero cells, cell viability). Particulars: for EC50: Human alphaherpesvirus 1, 96 h, Vero cells, read-out: HSV-1 EC50. It is filed as cell-based. As to the method:
Vero cells were cultured in Dulbecco's Modified Eagle Medium (DMVEM) supplemented with […] and 100 units/mL penicillin and streptomycin. The cells were passaged 2-3 times per week to maintain sub-confluent densities.
Vero cells were seeded into 96-well plates at a density of 2.5×10^3 cells per well and allowed to attach overnight. Following attachment, the media was replaced with 50 μL of infection medium (DMVEM supplemented with 2% fetal bovine serum and 100 units/mL penicillin and streptomycin). A Tecan D300e digital dispenser was then used to add compounds to the culture using an 8-point 3-fold serial dilution format. The DMSO concentration was normalized to 0.5% for all treatments. Following compound addition, 50 μL of infection medium containing 80 TCID50 HSV-1 was added to the cells and incubated at 37° C. for 4 days. After the incubation, the plates were equilibrated to room temperature, the media was removed, and […] a 1:1 dilution of Cell titer glow and phosphate buffered saline was added to the cells. Following a 5-minute incubation, cell viability was quantified by measuring luminance using a Tecan Infinite M1000 Pro plate reader.

Where [3] appears, read: 160 TCID50 HSV-2 G strain, cell viability.
Where [4] appears, read: 80 TCID50 HSV-1, 4 days, cell viability.
Where [5] appears, read: ratio of EC50 vs Example 87 in WO2001047904.

Consider `Cc1nc(N2CCCN(c3ccc(-c4cccc5c4CC(=O)N5C)cc3)C2=O)sc1S(N)(=O)=O` [Compound 77], for which the EC50 in experiment [1] (setting [3]) and in experiment [2] (setting [4]) was 0.1 to 1 µM throughout. Regarding `Cc1nc(N(C)C(=O)N(C)c2ccc(-c3cc(F)ccc3F)cc2)sc1S(N)(=O)=O` [Reference Compound A, reference compound], the EC50 in experiment [1] was determined as 0.925 µM; in experiment [2] (4 days) it was 0.844 µM. The “fold less active than Example 5 in the HSV-2 assay” value in experiment [1] (ratio of EC50 vs Example 5) was 92 fold. Moreover, the “fold less active than acyclic amide analog Example 87 in the HSV-2 assay” value in experiment [1] (setting [5]) came out at 54 fold. Besides, the “fold less active than Example 5 in the HSV-1 assay” value in experiment [2] (ratio of EC50 vs Example 5) is 44 fold. The “fold less active than acyclic amide analog Example 87 in the HSV-1 assay” value in experiment [2] (setting [5]) came to 50 fold.

Turning to `Cc1nc(N2CCCN(c3ccc(-c4cccc(F)c4F)cc3)C2=O)sc1S(N)(=O)=O` [Compound 6], the EC50 in experiment [1] (setting [3]) and in experiment [2] (setting [4]) was less than 0.1 µM throughout. Take `Cc1nc(N2CCCN(c3ccc(-c4cc(F)ccc4F)cc3)C2=O)sc1S(N)(=O)=O` [Compound 5]: the half-maximal effective concentration (EC50) in experiment [1] (setting [3]) and in experiment [2] (setting [4]) was less than 0.1 µM each time.

Regarding `Cc1nc(N2CC3(COC3)CN(c3ccc(-c4cc(F)cc(-c5cnn(C(F)F)c5)c4F)cc3)C2=O)sc1S(N)(=O)=O` [Compound 342], the EC50 in experiment [1] (setting [3]) and in experiment [2] (setting [4]) was less than 0.1 µM each time. In the case of `Cc1nc(N2CCCN(c3ccc(-c4cc(F)ccc4Cl)cc3)C2=O)sc1S(N)(=O)=O` [Compound 193], the 50% effective concentration (EC50) in experiment [1] (setting [3]) and in experiment [2] (setting [4]) was less than 0.1 µM each time. Take `Cc1nc(N2CCCN(Cc3cccc(-c4cc(F)ccc4F)c3)C2=O)sc1S(N)(=O)=O` [Compound 172, 2-(3-((2′,5′-Difluoro-[1,1′-biphenyl]-3-yl)methyl)-2-oxotetrahydropyrimidin-1(2H)-yl)-4-methylthiazole-5-sulfonamide]: the concentration for a half-maximal effect (EC50) in experiment [1] (setting [3]) and in experiment [2] (setting [4]) was less than 0.1 µM in each case.

On to `Cc1nc(N2CCCN(c3ccc(-c4ccccc4F)cc3)C2=O)sc1S(N)(=O)=O` [Compound 8], for which the EC50 in experiment [1] (setting [3]) and in experiment [2] (setting [4]) was less than 0.1 µM throughout. On to `Cc1nc(N2CCCCN(c3ccc(-c4ccccc4F)cc3)C2=O)sc1S(N)(=O)=O` [Compound 102], for which the 50% effective concentration (EC50) in experiment [1] (setting [3]) and in experiment [2] (setting [4]) was less than 0.1 µM each time. With `Cc1nc(N2CCCN(c3ccc(-c4ccccc4F)c(F)c3)C2=O)sc1S(=O)(=O)NC1CC1` [Compound 133], the EC50 in experiment [1] (setting [3]) and in experiment [2] (setting [4]) was less than 0.1 µM in each case. Regarding `CNS(=O)(=O)c1sc(N2CCCN(c3ccc(-c4ccccc4F)cc3F)C2=O)nc1C` [Compound 130], the EC50 in experiment [1] (setting [3]) and in experiment [2] (setting [4]) was less than 0.1 µM in each case. As for `Cc1nc(N2CCCN(c3ccc(-c4ccnn4C)cc3)C2=O)sc1S(N)(=O)=O` [Compound 40], the concentration for a half-maximal effect (EC50) in experiment [1] (setting [3]) and in experiment [2] (setting [4]) was 1 to 5 µM throughout. On to `CNS(=O)(=O)c1sc(N2CCCN(c3ccc(-c4nccs4)cc3)C2=O)nc1C` [Compound 126], for which the EC50 in experiment [1] (setting [3]) and in experiment [2] (setting [4]) was less than 0.1 µM in each case.

Consider `Cc1nc(N2CC3(COC3)CN(c3ccc(-c4cc(F)ccc4F)cc3)C2=O)sc1S(C)(=O)=O` [Compound 436], for which the 50% effective concentration (EC50) in experiment [1] (setting [3]) and in experiment [2] (setting [4]) was less than 0.1 µM each time. For the compound `Cc1nc(N2C[C@H](C#N)CN(c3ccc(-c4cc(F)ccc4F)cc3)C2=O)sc1S(N)(=O)=O` (single isomer, unassigned) [Compound 361], the concentration for a half-maximal effect (EC50) in experiment [1] (setting [3]) and in experiment [2] (setting [4]) was less than 0.1 µM each time.

As for `Cc1nc(N2CCCN([C@H](C)c3cccc(-c4cc(F)ccc4F)c3)C2=O)sc1S(N)(=O)=O` (single isomer, unassigned) [Compound 176], the EC50 in experiment [1] (setting [3]) and in experiment [2] (setting [4]) was 1 to 5 µM throughout. Turning to `COc1ccc(F)c(-c2ccc(N3CCCN(c4nc(C)c(S(N)(=O)=O)s4)C3=O)cc2)c1` [Compound 26], the concentration for a half-maximal effect (EC50) in experiment [1] (setting [3]) and in experiment [2] (setting [4]) was less than 0.1 µM each time. Turning to `Cc1nc(N2CCCN(c3ccc(-c4cc(F)cc(F)n4)cc3)C2=O)sc1S(N)(=O)=O` [Compound 235, 2-(3-(4-(4,6-difluoropyridin-2-yl)phenyl)-2-oxotetrahydropyrimidin-1(2H)-yl)-4-methylthiazole-5-sulfonamide], the concentration for a half-maximal effect (EC50) in experiment [1] (setting [3]) and in experiment [2] (setting [4]) was less than 0.1 µM throughout. As to `Cc1nc(N2CCCN(Cc3cccc(-c4ccccc4)c3)C2=O)sc1S(N)(=O)=O` [Compound 173], the EC50 in experiment [1] (setting [3]) and in experiment [2] (setting [4]) was less than 0.1 µM in each case. As for `CNS(=O)(=O)c1sc(N2CCCN(c3ccc(-c4ncccc4F)cc3)C2=O)nc1C` [Compound 122], the EC50 in experiment [1] (setting [3]) and in experiment [2] (setting [4]) was less than 0.1 µM each time. As to `Cc1nc(N2C[C@H](C)CN(c3ccc(-c4ccccc4F)cc3)C2=O)sc1S(N)(=O)=O` [Compound 316], the EC50 in experiment [1] (setting [3]) and in experiment [2] (setting [4]) was less than 0.1 µM throughout.

As to `Cc1nc(N2CCCN(c3ccc(-c4cc(F)cc5nnsc45)cc3)C2=O)sc1S(N)(=O)=O` [Compound 243], the 50% effective concentration (EC50) in experiment [1] (setting [3]) and in experiment [2] (setting [4]) was less than 0.1 µM each time. For the compound `Cc1nc(N2CCCN(C(C)c3cccc(-c4cc(F)ccc4F)c3)C2=O)sc1S(N)(=O)=O` (stereo not shown) [Compound 174, 2-(3-(1-(2′,5′-Difluoro-[1,1′-biphenyl]-3-yl)ethyl)-2-oxotetrahydropyrimidin-1(2H)-yl)-4-methylthiazole-5-sulfonamide], the concentration for a half-maximal effect (EC50) in experiment [1] (setting [3]) and in experiment [2] (setting [4]) was 1 to 5 µM throughout. Turning to `CNS(=O)(=O)c1sc(N2CCCN(c3ccc(-c4ccccc4F)cc3)C2=O)nc1C` [Compound 120], the EC50 in experiment [1] (setting [3]) and in experiment [2] (setting [4]) was less than 0.1 µM throughout. On to `Cc1nc(N2CCCN(c3ccc(-c4cc(F)cc(-c5cncs5)c4F)cc3)C2=O)sc1S(N)(=O)=O` [Compound 211], for which the EC50 in experiment [1] (setting [3]) and in experiment [2] (setting [4]) was less than 0.1 µM in each case. For `COc1ccccc1-c1ccc(N2CCCN(c3nc(C)c(S(N)(=O)=O)s3)C2=O)cc1` [Compound 10], the concentration for a half-maximal effect (EC50) in experiment [1] (setting [3]) and in experiment [2] (setting [4]) was less than 0.1 µM each time.

Turning to `Cc1nc(N2CCCN(c3ccc(-c4cccnc4)cc3)C2=O)sc1S(N)(=O)=O` [Compound 2], the EC50 in experiment [1] (setting [3]) and in experiment [2] (setting [4]) was 0.1 to 1 µM throughout.

For `Cc1nc(N2C[C@H](C(C)(C)O)CN(c3ccc(-c4cc(F)ccc4F)cc3)C2=O)sc1S(N)(=O)=O` (single isomer, unassigned) [Compound 343], the concentration for a half-maximal effect (EC50) in experiment [1] (setting [3]) and in experiment [2] (setting [4]) was less than 0.1 µM in each case. As for `Cc1nc(N2CCCN(c3ccc(-c4cc(F)cc(-c5cnn(C(F)F)c5)c4F)cc3)C2=O)sc1S(N)(=O)=O` [Compound 228, 2-(3-(3′-(1-(difluoromethyl)-1H-pyrazol-4-yl)-2′,5′-difluoro-[1,1′-biphenyl]-4-yl)-2-oxotetrahydropyrimidin-1(2H)-yl)-4-methylthiazole-5-sulfonamide], the 50% effective concentration (EC50) in experiment [1] (setting [3]) and in experiment [2] (setting [4]) was less than 0.1 µM throughout.

`Cc1nc(N2CC(F)CN(c3ccc(-c4cc(F)ccc4F)cc3)C2=O)sc1S(N)(=O)=O` (stereo not shown) [Compound 363]: the concentration for a half-maximal effect (EC50) in experiment [1] (setting [3]) and in experiment [2] (setting [4]) was less than 0.1 µM in each case. Turning to `Cc1nc(N2CCCN(c3ccc(-c4nc5ccccc5s4)cc3)C2=O)sc1S(N)(=O)=O` [Compound 88], the 50% effective concentration (EC50) in experiment [1] (setting [3]) is 1 to 5 µM; in experiment [2] (setting [4]) it was 0.1 to 1 µM.

As to `Cc1nc(N2CCCN(c3ccc(-c4cc(F)cc(-c5cnn(C)c5)c4F)cc3)C2=O)sc1S(N)(=O)=O` [Compound 210], the concentration giving a half-maximal response (EC50) in experiment [1] (setting [3]) and in experiment [2] (setting [4]) was less than 0.1 µM each time.

Turning to `Cc1csc(-c2ccc(N3CCCN(c4nc(C)c(S(N)(=O)=O)s4)C3=O)cc2)n1` [Compound 43], the 50% effective concentration (EC50) in experiment [1] (setting [3]) and in experiment [2] (setting [4]) was less than 0.1 µM throughout. Regarding `Cc1cc2cccc(-c3ccc(N4CCCN(c5nc(C)c(S(N)(=O)=O)s5)C4=O)cc3)c2s1` [Compound 73], the concentration for a half-maximal effect (EC50) in experiment [1] (setting [3]) and in experiment [2] (setting [4]) was less than 0.1 µM in each case. As for `NS(=O)(=O)c1sc(N2CCCN(c3ccc(-c4cc(F)ccc4F)cc3)C2=O)nc1C(F)(F)F` [Compound 169, 2-(3-(2′,5′-Difluoro-[1,1′-biphenyl]-4-yl)-2-oxotetrahydropyrimidin-1(2H)-yl)-4-(trifluoromethyl) thiazole-5-sulfonamide], the 50% effective concentration (EC50) in experiment [2] (setting [4]) is less than 0.1 µM. The same measure, in the same setting: under `CS(=O)(=O)c1cnc(N2CCCN(c3ccc(-c4cc(F)ccc4F)cc3)C2=O)s1` [Compound 167] stands 0.1 to 1 µM; under `Cc1nc(N2CCCN(c3ccc(-c4nnco4)cc3)C2=O)sc1S(N)(=O)=O` [Compound 51, 2-(3-(4-(1,3,4-oxadiazol-2-yl)phenyl)-2-oxotetrahydropyrimidin-1(2H)-yl)-4-methylthiazole-5-sulfonamide], 1 to 5 µM. Still for that read-out and setting: under `Cc1nc(N2CCCN(c3ccc(-n4ncc5ccccc54)cc3)C2=O)sc1S(N)(=O)=O` [Compound 93] stands less than 0.1 µM; under `Cc1nc(N2CCCN(c3ccc(-c4cccc(C(F)(F)F)c4)cc3)C2=O)sc1S(N)(=O)=O` [Compound 15], 0.1 to 1 µM. On the same count and under the same terms, to `Cc1nc(N2CCCN(c3ccc(-c4cc(F)ccc4F)cc3)C2=O)sc1S(=O)(=O)N1CCOCC1` [Compound 136] belongs 0.1 to 1 µM; to `Cc1nc(N2CCN(c3ccc(-c4cc(F)ccc4F)cc3)C2=O)sc1S(N)(=O)=O` [Compound 104], 1 to 5 µM.
